Experiment: xn = mol fraction of the nth substance listed
Conditions: 101 kPa, Liquid; for viscosity: Concentric cylinders viscometry; for speed of sound: Single path-length method; for mass density: Vibrating tube method

CCCCCCCC/C=C\CCCCCCCC(=O)OCC [ethyl (Z)-9-octadeceneoate] + CCCO
Conditions | mass density [kg/m3] | speed of sound [m/s] | viscosity [mPa·s]
293.15 K, x2 = 0 | 868.91 | 1394.2 | 6.413
293.15 K, x2 = 0.1 | 867.29 | 1389.8 | 6.028
293.15 K, x2 = 0.2 | 865.42 | 1384.1 | 5.695
293.15 K, x2 = 0.3 | 863.2 | 1377.6 | 5.368
293.15 K, x2 = 0.4 | 860.5 | 1370 | 5.016
293.15 K, x2 = 0.5 | 857.13 | 1360.7 | 4.643
293.15 K, x2 = 0.6 | 852.82 | 1349.2 | 4.238
293.15 K, x2 = 0.7 | 846.96 | 1333.8 | 3.8
293.15 K, x2 = 0.8 | 838.72 | 1312.4 | 3.299
293.15 K, x2 = 0.9 | 826.05 | 1279 | 2.748
298.15 K, x2 = 0 | 865.27 | 1376.2 | 5.653
298.15 K, x2 = 0.1 | 863.62 | 1371.8 | 5.318
298.15 K, x2 = 0.2 | 861.71 | 1366.1 | 5.028
298.15 K, x2 = 0.3 | 859.46 | 1359.7 | 4.736
298.15 K, x2 = 0.4 | 856.73 | 1352 | 4.427
298.15 K, x2 = 0.5 | 853.33 | 1342.7 | 4.102
298.15 K, x2 = 0.6 | 848.98 | 1331.2 | 3.742
298.15 K, x2 = 0.7 | 843.08 | 1315.9 | 3.357
298.15 K, x2 = 0.8 | 834.8 | 1294.6 | 2.93
298.15 K, x2 = 0.9 | 822.08 | 1261.3 | 2.455
303.15 K, x2 = 0 | 861.63 | 1358.4 | 4.986
303.15 K, x2 = 0.1 | 859.95 | 1353.9 | 4.693
303.15 K, x2 = 0.2 | 858.01 | 1348.3 | 4.435
303.15 K, x2 = 0.3 | 855.72 | 1341.8 | 4.183
303.15 K, x2 = 0.4 | 852.96 | 1334.2 | 3.915
303.15 K, x2 = 0.5 | 849.52 | 1324.8 | 3.629
303.15 K, x2 = 0.6 | 845.14 | 1313.4 | 3.312
303.15 K, x2 = 0.7 | 839.19 | 1298.1 | 2.98
303.15 K, x2 = 0.8 | 830.87 | 1276.9 | 2.603
303.15 K, x2 = 0.9 | 818.09 | 1243.8 | 2.186
308.15 K, x2 = 0 | 858.01 | 1340.8 | 4.424
308.15 K, x2 = 0.1 | 856.28 | 1336.3 | 4.167
308.15 K, x2 = 0.2 | 854.3 | 1330.6 | 3.94
308.15 K, x2 = 0.3 | 851.98 | 1324.2 | 3.719
308.15 K, x2 = 0.4 | 849.18 | 1316.5 | 3.482
308.15 K, x2 = 0.5 | 845.71 | 1307.2 | 3.23
308.15 K, x2 = 0.6 | 841.28 | 1295.7 | 2.956
308.15 K, x2 = 0.7 | 835.29 | 1280.4 | 2.657
308.15 K, x2 = 0.8 | 826.92 | 1259.4 | 2.324
308.15 K, x2 = 0.9 | 814.08 | 1226.5 | 1.955
313.15 K, x2 = 0 | 854.39 | 1323.3 | 3.919
313.15 K, x2 = 0.1 | 852.62 | 1318.8 | 3.697
313.15 K, x2 = 0.2 | 850.61 | 1313.1 | 3.497
313.15 K, x2 = 0.3 | 848.24 | 1306.6 | 3.305
313.15 K, x2 = 0.4 | 845.4 | 1299 | 3.1
313.15 K, x2 = 0.5 | 841.89 | 1289.6 | 2.882
313.15 K, x2 = 0.6 | 837.41 | 1278.2 | 2.645
313.15 K, x2 = 0.7 | 831.37 | 1262.9 | 2.384
313.15 K, x2 = 0.8 | 822.94 | 1241.9 | 2.09
313.15 K, x2 = 0.9 | 810.04 | 1209.2 | 1.76
318.15 K, x2 = 0 | – | 1306 | 3.554
318.15 K, x2 = 0.1 | – | 1301.4 | 3.354
318.15 K, x2 = 0.2 | – | 1295.7 | 3.171
318.15 K, x2 = 0.3 | – | 1289.2 | 2.996
318.15 K, x2 = 0.4 | – | 1281.6 | 2.808
318.15 K, x2 = 0.5 | – | – | 2.606
318.15 K, x2 = 0.6 | – | – | 2.388
318.15 K, x2 = 0.7 | – | – | 2.147
318.15 K, x2 = 0.8 | – | – | 1.882
318.15 K, x2 = 0.9 | – | – | 1.584
